Test results: patent US20240108740A1, “THERAPEUTIC COMPOSITIONS INCLUDING SPN10 AND USES THEREOF” (Stealth BioTherapeutics Inc., priority 2022, published 2024)
Residues, ends and D or L forms follow the SMILES beside them.

Experiments:
N2A cells = experiment: Example 24: lipid peroxidation (4-HNE Michael adducts); type: cell-based; conditions: t-BHP 1 mM, 3 hours
Protocol: Lipid peroxidation will be evaluated by measuring 4-HNE Michael adducts. 4-HNE is one of the major products of the peroxidation of membrane polyunsaturated fatty acids. N2A cells will be seeded on a glass dish 1 day before t-BHP treatment (1 mM, 3 hours, 37° C., 5% CO2) alone or in the presence of peptide conjugates (10^−8 to 10^−10 M), aromatic-cationic peptides (an equivalent molar dose of aromatic-cationic peptide based on the concentration of the aromatic-cationic peptide administered in the peptide conjugate treatment group); SPN10(s) (an equivalent molar dose of SPN10 based on the concentration of SPN10 administered in the peptide conjugate treatment group); or SPN10(s) in combination with aromatic-cationic peptides (e.g., an equivalent molar dose of SPN10 based on the concentration of SPN10 administered in the peptide conjugate treatment group and an equivalent molar dose of aromatic-cationic peptide based on the concentration of aromatic-cationic peptide administered in the peptide conjugate treatment group). Cells will be washed twice with PBS, fixed 30 minutes with 4% paraformaldehyde in PBS at RT, and washed 3 additional times with PBS. […] Cells will be mounted in Vectashield and imaged using a Zeiss fluorescence microscope using an excitation wavelength of 460±20 nm and a longpass filter of 505 nm for emission.

[1] = system: CD36 knockout (CD36 KO) mice; experiment: Example 3: acute cerebral ischemia in CD36 knockout mice; type: in vivo, mouse
Protocol: CD36 knockout (CD36 KO) mice will be subjected to acute cerebral ischemia as described in Example 2. CD36 KO mice will be given either saline vehicle (Veh) (i.p., n=5), peptide conjugates (2 mg/kg or 5 mg/kg, i.p., n=6), aromatic-cationic peptides (e.g., an equivalent molar dose of aromatic-cationic peptide based on the concentration of the aromatic-cationic peptide administered in the peptide conjugate treatment group), SPN10(s) (e.g., an equivalent molar dose of SPN10 based on the concentration of SPN10 administered in the peptide conjugate treatment group), or SPN10(s) in combination with aromatic-cationic peptides (e.g., an equivalent molar dose of SPN10 based on the concentration of SPN10 administered in the peptide conjugate treatment group and an equivalent molar dose of aromatic-cationic peptide based on the concentration of aromatic-cationic peptide administered in the peptide conjugate treatment group) at 0, 6, 24 and 48 hours following a 30 minute period of ischemia. Infarct volume and hemispheric swelling in CD36 KO mice are expected to be similar in subjects receiving saline, SPN10(s) (alone or in combination with aromatic-cationic peptides), aromatic-cationic peptides and peptide conjugates.

male C57BL mice = experiment: Example 46: burn-induced liver apoptosis; type: in vivo, mouse
Protocol: Six-to-eight week old male C57BL mice will be subjected to 30% total body surface (TBSA) burn injury and subsequently injected daily with saline vehicle; peptide conjugates (5 mg/kg body weight); aromatic-cationic peptides (an equivalent molar dose of aromatic-cationic peptide based on the concentration of the aromatic-cationic peptide administered in the peptide conjugate treatment group); SPN10(s) (an equivalent molar dose of SPN10 based on the concentration of SPN10 administered in the peptide conjugate treatment group); or SPN10(s) in combination with aromatic-cationic peptides (e.g., an equivalent molar dose of SPN10 based on the concentration of SPN10 administered in the peptide conjugate treatment group and an equivalent molar dose of aromatic-cationic peptide based on the concentration of aromatic-cationic peptide administered in the peptide conjugate treatment group). A weight- and time-matched sham-burn group exposed to lukewarm (˜37° C.) will serve as controls. Liver tissues will be collected 1, 3, and 7 days after burn injury treatment and analyzed for apoptosis (TUNEL), activated caspase levels (Western blot), and caspase activity (enzymatic assay).

In the case of `N=C(N)NCCC[C@H](NC(=O)[C@@H](N)Cc1c[nH]c2ccccc12)C(=O)N[C@@H](Cc1c[nH]c2ccccc12)C(=O)N[C@@H](CCCCN)C(N)=O` [SPN10, H-L-Trp-L-Arg-L-Trp-L-Lys-NH2] (H-WRWK-NH2), the “lipid peroxidation in cells treated with t-BHP” value (N2A cells) is reported as “inhibit lipid peroxidation”, the “infarct volume and hemispheric swelling in CD36 KO mice” value ([1]; compared with saline) is reported as “similar” and the “GSH depletion in the ipsilateral cortex in CD36 KO mice” value ([1]; mouse, in vivo) is reported as “fail to further prevent GSH depletion”. For the same compound, the “rate of apoptosis in the liver after burn (TUNEL)” value (male C57BL mice; 30% TBSA burn, days 1, 3, 7) was “attenuate or prevent this effect”, the “protein oxidation following burn injury” value (male C57BL mice; compared to burn control subjects) was “decrease in protein oxidation” and the “caspase-3 activation (Western blot)” value (male C57BL mice; days 3 and 7 post-burn) was “attenuate or suppress caspase-3 activation”. For the same compound, the “caspase activity (enzymatic assay)” value (male C57BL mice; post-burn day 7) was “reduce caspase activity to a level not statistically different from that of sham control group”.
